Results taken from US6645490B2, “Chimeric proteins with cell-targeting specificity and apoptosis-inducing activities” (priority 1998, dated 2003).

How the values were obtained:
2B4 cells = assay: Cytotoxicity assay, [3H] leucine incorporation (inhibition of protein synthesis); format: cell-based, mouse; conditions: 2B4, IL2R-expressing; FIG. 5A
Protocol: (§1) Cells (10^4 in 0.2 ml culture medium) were seeded in 96-well microplates, followed by the addition of various concentrations of the chimeric protein (diluted with 0.25% BSA in PBS). After a 24 hour incubation, [^3H] leucine (2-5 uci/well) were added for 6-13 hr. The plates were then stored at −70° C. for several hours, followed by quick thawing at 37° C. This step was omitted with targets cells growing in suspension. The cells were harvested on filters and the incorporated radioactivity was measured with a β counter. Results were expressed as the percent incorporation of the control experiments in which the cells were not exposed to any protein. All assays were carried out in triplicates.
(§2) The cytotoxic activity of the IL2-Bax chimeric protein was tested on HUT102 and MT-1 cells (human T-cell lines), and 2B4 cells (mouse T-cells); all known to express the high affinity receptor for IL2, by a quantitative assay, in which inhibition of protein synthesis was measured. The soluble and insoluble fractions generated from treatment under three different conditions were tested in cytotoxicity assays as described by Lorberboum-Galski et al. (1988, J. Biol. Chem. 263:18650-18656). […] This may be attributed to the different number of IL2R expressed on each cell line. […]

HUT102 cells [1] = assay: as above; format: cell-based, human; conditions: HUT102, IL2R-expressing; FIG. 5A
Protocol: as §1, §2

MT-1 cells = assay: as above; format: cell-based, human; conditions: MT-1, IL2R-expressing; FIG. 5A
Protocol: as §1, §2

CEM cells [2] = assay: as above; format: cell-based, human; conditions: lacking the IL2R, FIG. 5B
Protocol: as §1
(§3) The effects of IL2-Bax were also tested on various IL2R negative cells: CEM cells (a human T-cell line lacking the IL2R) and Km3 (a human non-T, non-B stem cell line). […] Since the fraction treated with Gu-HCl was active without any non-specific cytotoxicity, this fraction was further used in subsequent experiments.

Km3 = assay: as above; format: cell-based, human; conditions: Km3, IL2R negative; FIG. 5B
Protocol: as §1, §3

[3] = system: Human peripheral blood lymphocytes; assay: Assay for identifying apoptotic cells, FACS of fresh lymphocytes; format: cell-based; parameters: unit not given here; conditions: for M1-2 / M1 / M2: Experiment No. 1; for M1 / M2 / UL / UR: mean of duplicates; for UL + UR / UL / UR: Experiment No. 2
Protocol: Human peripheral blood lymphocytes from healthy donors were separated using Ficoll-Isopaque gradient (1.077) (Pharmacia) and used immediately. Lymphocytes were cultured in 5% CO2 in air in RPMI 1640 medium supplemented with 10% fetal calf serum, 200 μg/ml L-glutamate, 50 μg/ml penicillin, 50 μg/ml streptomycin, 50 μg/ml glutamine and 5×10^−5 M 2-β mercaptoethanol. Increasing concentrations of IL2-Bax (insoluble fraction, 6M Gu-HCl treated) were added to the lymphocytes for 22 hr. Cells were then stained with:
A. Propidium Iodide (PI, 3.5 μg/ml)
B. Propidium Iodide with a detergent for measuring cell cycle (0.7 ml of the PI buffer: 50 μg/ml PI, 0.1% Nacitrate, 0.1% Triton×100, were added to a cell pellet of ˜10^6 cells). Cells were then analyzed by FACS.

HUT102 cells [4] = assay: Assay for identifying apoptotic cells, FACS (PI fluorescence of nuclei); format: cell-based, human; conditions: highest concentration tested, overnight
Protocol: (§4) HUT102 cells (target T cells) and CEM cells (non-target T cells) were incubated overnight with increasing concentrations of IL2-Bax. The 200×g centrifuged cell pellet was fixed in 2 ml cold 70% ethanol at 4° C. for 60 min. The cells were then centrifuged, washed in 1 ml PBS and resuspended in 0.5 ml PBS. 0.5 ml RNAse (Type I-A, Sigma, St. Louis, Mo., 1 mg/ml in PBS) was added to the sample, followed by gentle mixing with 1 ml PI (Sigma, 100 μg/ml PBS) solution. The mixed cells were incubated in the dark at room temperature for 15 min. and kept at 4° C. in the dark until measured. The PI fluorescence of the individual nuclei was measured using FACS flow cytometer. The forward scatter and side scatter of particles were simultaneously measured. Cell debris were excluded from analysis by appropriately raising the forward scatter threshold (Nicoletti et al., 1991, J. Immunol. Meth. 139:271-279).

CEM cells [5] = assay: as above; format: cell-based, human; conditions: CEM cells lacking IL2R expression; FIGS. 9A-9C
Protocol: as §4

Compound: IL2-Bax
- Cytotoxic activity (inhibition of protein synthesis) (2B4 cells): responsive to the chimeric protein in a dose dependent manner
- Cytotoxic activity (inhibition of protein synthesis) (HUT102 cells [1]): responsive to the chimeric protein in a dose dependent manner
- Cytotoxic activity (inhibition of protein synthesis) (MT-1 cells): responsive to the chimeric protein in a dose dependent manner
- Cytotoxic activity (inhibition of protein synthesis) (CEM cells [2]): unaffected
- Cytotoxic activity (inhibition of protein synthesis) (Km3): unaffected
- M1-2 ([3]; 1 μg, 22 hr): 13.5
- M1 ([3]; 1 μg, 22 hr): 17.5
- M2 ([3]; 1 μg, 22 hr): 4
- M1-2 ([3]; 5 μg, 22 hr): 20
- M1 ([3]; 5 μg, 22 hr): 24.3
- M2 ([3]; 5 μg, 22 hr): 4.3
- M1-2 ([3]; 10 μg, 22 hr): 35
- M1 ([3]; 10 μg, 22 hr): 42.1
- M2 ([3]; 10 μg, 22 hr): 9.1
- UL + UR ([3]; 1 μg, 22 hr): 10.54
- UL ([3]; 1 μg, 22 hr): 4.98
- UR ([3]; 1 μg, 22 hr): 5.56
- UL + UR ([3]; 10 μg, 22 hr): 31.55
- UL ([3]; 10 μg, 22 hr): 14.71
- UR ([3]; 10 μg, 22 hr): 16.84
- Increase in the percentage of the apoptotic-cell population (sub-G1, M1) (HUT102 cells [4]): 3.6 fold
- Increase in the apoptotic cell population (CEM cells [5]): did not show an increase in the apoptotic cell population

Compound: C[C@@H]1C[C@H]2[C@@H]3CCC4=CC(=O)C=C[C@]4(C)[C@@]3(F)[C@@H](O)C[C@]2(C)[C@@]1(O)C(=O)CO [dexamethasone, reference compound]
- M1-2 ([3]; dexamethasone (10^-7 M)): 6.7
- M1 ([3]; dexamethasone (10^-7 M)): 9.5
- M2 ([3]; dexamethasone (10^-7 M)): 2.8
